According to US20200255436A1, “CORTICOTROPIN RELEASING FACTOR RECEPTOR ANTAGONISTS” (Spruce Biosciences, Inc., priority 2019, published 2020):
Converted amounts (≈) assume the structure as drawn.

Tests used:
[1] = Solubility in different aqueous media; type: physicochemical; settings: for solubility at 24 h: thermodynamic from solid
[2] = Phase 1 safety and tolerability (Study 1 and Study 2); type: in vivo, human; settings: healthy subjects
Excerpt: Study 1 was the first-in-human study that investigated the safety, tolerability, and PK of single-escalating doses of Compound 1, given orally, to healthy adult subjects. […] The data from this study were used for the selection of doses for Study 2.
The 2-part multiple-dose study, Study 2, determined the safety and tolerability of repeated daily doses of Compound 1 and investigated the effects on biomarkers of relevance for the treatment of alcohol dependence.
The safety of Compound 1 was evaluated in 2 Phase 1 studies in healthy adult volunteers (Study 1 and Study 2). In both studies, adverse events (AEs), clinical laboratory tests, vital signs (supine blood pressure and pulse rate), and electrocardiograms (ECGs) were evaluated. Overall, in Study 1, Compound 1 was well-tolerated.

CRF1 receptor = biological target: T1, CRF1 receptor (Homo sapiens, UniProt P34998); assay: Phase 2 study in adults with classic CAH: ACTH, 17-OHP, androstenedione response; type: in vivo; settings: patients with classic CAH
T1 construct: from tissue; host or cells: Human patients in vivo (anterior pituitary corticotrophs)
T1 sequence (P34998 24-415): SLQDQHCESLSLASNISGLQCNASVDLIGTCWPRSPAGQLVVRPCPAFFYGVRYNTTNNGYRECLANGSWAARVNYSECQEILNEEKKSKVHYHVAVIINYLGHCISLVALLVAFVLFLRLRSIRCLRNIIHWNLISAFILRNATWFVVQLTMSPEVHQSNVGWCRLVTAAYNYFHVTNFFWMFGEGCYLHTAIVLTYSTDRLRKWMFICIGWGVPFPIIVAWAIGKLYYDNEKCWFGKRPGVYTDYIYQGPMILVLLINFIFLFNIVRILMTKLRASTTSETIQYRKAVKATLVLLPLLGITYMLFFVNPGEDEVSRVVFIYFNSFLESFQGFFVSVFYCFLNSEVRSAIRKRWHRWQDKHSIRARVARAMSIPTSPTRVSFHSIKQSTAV
Excerpt: Cohort A of the Phase 2 Study includes a 6-week, multiple-dose, dose escalation study of Compound 1 for the treatment of adults with classic CAH. After screening, eligible patients will be enrolled into a 6-week treatment period followed by a 4-week washout/safety follow-up period.
This cohort will be conducted in approximately 9 patients, who will receive Compound 1 daily for up to 6 weeks. Compound 1 will be administered as an oral daily dose. Patients will undergo titration of Compound 1 through three escalating dosage strengths at 2-week intervals. Patients will have overnight PK/PD assessments performed at baseline, which include an pre-dose overnight assessment and a post-dose overnight assessment for PK/PD following administration of the first dose. At the end of each 2-week dosing period, patients will return for single overnight visits for steady-state PK/PD assessments. A follow-up outpatient visit will occur 30 days after their last dose. Upon completion of the initial cohort (Cohort A), the study will proceed to a multiple ascending dose (MAD) design with up to 3 sequential cohorts (Cohorts B, C, and D) to further evaluate the safety, PK, and PD of various SPROO1 dosing regimens and to identify an optimal dose regimen. Each cohort will undergo a 2-week run-in period, a 2-week treatment period, and a 30-day washout and safety follow-up period. During the run-in period, which will occur during screening, subjects will document in a paper diary each dose of glucocorticoid medication taken, the time of each meal, and the time they went to bed and woke up each day, to ensure compliance with background glucocorticoid regimens and the stability of their daily routine.
• 1. To evaluate the safety of Compound 1 in subjects with CAH. • 2. To assess the efficacy of Compound 1 in subjects with classic CAH as measured by percent and absolute change in 17-OHP compared to baseline.
• 3. To explore the dose(s) of Compound 1 that cause pharmacodynamics changes in plasma concentrations of ACTH, androstenedione, and testosterone, as measured by the absolute and percent change from baseline by dose. • 4. To determine pharmacokinetics of Compound 1 in subjects with CAH. • 5. To explore potential relationships between pharmacodynamics and pharmacokinetics.

Description (solubility) ([1]; 0.001N HCl, equilibrium pH 3.36): Insoluble | Description (solubility) ([1]; 0.01N HCl, equilibrium pH 2.06): Insoluble | Description (solubility) ([1]; 0.1N HCl, equilibrium pH 1.06): insoluble | Description (solubility) ([1]; 0.1N NaOH, equilibrium pH 11.65): Insoluble | Description (solubility) ([1]; FaSSIF, equilibrium pH 5.16): insoluble | Description (solubility) ([1]; FaSSIF, equilibrium pH 6.73): Insoluble | Description (solubility) ([1]; SGF, equilibrium pH 2.25): Insoluble | Description (solubility) ([1]; Water, equilibrium pH 7.78): insoluble | solubility at 24 h ([1]; aqueous buffer, 0.001N HCl, equilibrium pH 3.36, 24 hours at room temperature): 0.3 µg/mL (≈ 0.714 µM) | solubility at 24 h ([1]; aqueous buffer, 0.1N NaOH, equilibrium pH 11.65, 24 hours at room temperature): 0.2 µg/mL (≈ 0.476 µM) | Description (solubility) ([1]; pH 4.5 Acetate (USP), equilibrium pH 4.65): Insoluble | solubility at 24 h ([1]; pH 4.5 acetate buffer (USP), aqueous buffer, pH 4.5 Acetate (USP), equilibrium pH 4.65, 24 hours at room temperature): 0.5 µg/mL (≈ 1.19 µM) | Description (solubility) ([1]; pH 6.0 Phosphate (USP), equilibrium pH 6.08): Insoluble | solubility at 24 h ([1]; pH 6.0 phosphate buffer (USP), aqueous buffer, pH 6.0 Phosphate (USP), equilibrium pH 6.08, 24 hours at room temperature): 0.2 µg/mL (≈ 0.476 µM) | Description (solubility) ([1]; pH 7.5 Phosphate (USP), equilibrium pH 7.57): Insoluble | solubility at 24 h ([1]; pH 7.5 phosphate buffer (USP), aqueous buffer, pH 7.5 Phosphate (USP), equilibrium pH 7.57, 24 hours at room temperature): 0.6 µg/mL (≈ 1.43 µM) | solubility at 24 h ([1]; simulated gastric fluid, 0.01N HCl, equilibrium pH 2.06, 24 hours at room temperature): 0.4 µg/mL (≈ 0.952 µM) | solubility at 24 h ([1]; simulated gastric fluid, 0.1N HCl, equilibrium pH 1.06, 24 hours at room temperature): 1.8 µg/mL (≈ 4.29 µM) | solubility at 24 h ([1]; simulated gastric fluid, SGF, equilibrium pH 2.25, 24 hours at room temperature): 20.4 µg/mL (≈ 48.6 µM) | solubility at 24 h ([1]; FaSSIF, equilibrium pH 5.16, 24 hours at room temperature): 10.4 µg/mL (≈ 24.8 µM) | solubility at 24 h ([1]; FaSSIF, equilibrium pH 6.73, 24 hours at room temperature): 3.6 µg/mL (≈ 8.57 µM) | solubility at 24 h ([1]; Water, equilibrium pH 7.78, 24 hours at room temperature, n = 2): 0.3 µg/mL (≈ 0.714 µM) | effect on morning rise in A4 (androstenedione) (CRF1 receptor): attenuates morning rise in A4 | subjects with 17-OHP within the guideline range (1200 ng/dL) after treatment (CRF1 receptor): 50% | subjects with ACTH in the normal range after treatment (CRF1 receptor): 40% | subjects with Androstenedione within normal reference range after treatment (CRF1 receptor): 50% | subjects with more than 25% reduction in 17-OHP (CRF1 receptor): 50% | subjects with more than 25% reduction in ACTH (CRF1 receptor): 70% | subjects with more than 25% reduction in Androstenedione (CRF1 receptor): 60% | subjects with reduction in 17-OHP (CRF1 receptor): 80% | subjects with reduction in ACTH (CRF1 receptor): 80% | subjects with reduction in Androstenedione (CRF1 receptor; at various doses): 100%
Structure (SMILES): CCC(CC)c1cc(C)nc2c(-c3sc(N4CCOCC4)nc3Cl)c(C)nn12 [Compound 1, 4-(4-chloro-5-(2,5-dimethyl-7-(pentan-3-yl)pyrazolo[1,5-a]pyrimidin-3-yl)thiazol-2-yl)morpholine]
tolerability ([2]; Study 1, single oral doses up to 800 mg): well-tolerated | tolerability ([2]; Study 2, multiple doses up to 200 mg): generally well tolerated
